Source: patent US20210139467A1 (GLAXOSMITHKLINE INTELLECTUAL PROPERTY DEVELOPMENT LIMITED, priority 2017, published 2021)

Columns and labels:
IDO1 = IDO1 (Homo sapiens, UniProt P14902); assay: IDO1 HeLa RapidFire MS Assay; assay type: cell-based; parameters: stimulated with human interferon-γ (IFN-γ); settings: HeLa cells stimulated with IFN-γ; kynurenine detected by mass spectrometry; 2 days; read-out: IDO1 HeLa pIC50 (converted)
Protocol: IDO1 HeLa RapidFire MS Assay
Compounds of the present invention were tested via high-throughput cellular assays utilizing detection of kynurenine via mass spectrometry and cytotoxicity as end-points. For the mass spectrometry and cytotoxicity assays, human epithelial HeLa cells (CCL-2; ATCC®, Manassas, Va.) were stimulated with human interferon-γ (IFN-γ) (Sigma-Aldrich Corporation, St. Louis, Mo.) to induce the expression of indoleamine 2, 3-dioxygenase (IDO1). Compounds with IDO1 inhibitory properties decreased the amount of kynurenine produced by the cells via the tryptophan catabolic pathway. Cellular toxicity due to the effect of compound treatment was measured using CellTiter-Glo® reagent (CTG) (Promega Corporation, Madison, Wis.), which is based on luminescent detection of ATP, an indicator of metabolically active cells. […]
Following incubation, the 384-well plates were removed from the incubator and allowed to equilibrate to room temperature for 30 minutes. […] After a twenty minute incubation at room temperature, luminescence was read on an EnVision® Multilabel Reader (PerkinElmer Inc., Waltham, Mass.). […]

[1] = tested on: conversion of T cells into CD4+FoxP3+ Tregs; settings: co-culture of DCs and naive CD4+CD25- T cells; cited from earlier work
PAN02 pancreatic cells = settings: cited from earlier work

Sequence of IDO1 (P14902 whole entry): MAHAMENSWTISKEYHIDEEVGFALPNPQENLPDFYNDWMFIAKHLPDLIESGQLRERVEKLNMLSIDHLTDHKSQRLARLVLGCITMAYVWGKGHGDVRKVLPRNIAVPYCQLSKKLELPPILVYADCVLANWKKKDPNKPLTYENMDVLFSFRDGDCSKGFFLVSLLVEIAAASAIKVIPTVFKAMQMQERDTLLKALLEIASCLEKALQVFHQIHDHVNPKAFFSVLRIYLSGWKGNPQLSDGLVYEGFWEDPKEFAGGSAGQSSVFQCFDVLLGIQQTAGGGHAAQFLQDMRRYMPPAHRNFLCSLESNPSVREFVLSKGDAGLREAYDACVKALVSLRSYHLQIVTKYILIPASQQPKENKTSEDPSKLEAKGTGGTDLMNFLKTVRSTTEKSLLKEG

Row | Structure (SMILES) | IC50 (IDO1) [nM] | conversion of T cells into CD4+FoxP3+ Tregs [1] | inhibition of tumor growth (PAN02 pancreatic cells; PAN02 syngeneic model, immunocompetent mice, orally dosed) | effect on tumor growth (PAN02 pancreatic cells; same tumor implanted in immune-deficient mice)
1 | CC(C)CN(c1ccc(C2(C(=O)NS(C)(=O)=O)CC2)nc1Nc1ccc(Cl)cn1)C1CCOCC1 [Example 16, 1-(6-((5-chloropyridin-2-yl)amino)-5-(isobutyl(tetrahydro-2H-pyran-4-yl)amino)pyridin-2-yl)-N-(methylsulfonyl)cyclopropane-1-carboxamide] | 10 |  |  | 
2 | CC(C)CN(c1ccc(C2(C(=O)O)CC2)nc1Nc1ccc(Cl)cn1)C1CCOCC1 [Example 15, 1-(6-((5-chloropyridin-2-yl)amino)-5-(isobutyl(tetrahydro-2H-pyran-4-yl)amino)pyridin-2-yl)cyclopropane-1-carboxylic acid] | 158 |  |  | 
3 | NS(=O)(=O)NCCNc1nonc1C(=NO)Nc1ccc(F)c(Br)c1 [INCB204360, epacadostat] |  | blocked the conversion | significant dose-dependent inhibition of tumor growth | without effect
